In patent US10005767B2, “Compositions and methods for inhibition of the JAK pathway” (Rigel Pharmaceuticals, Inc., priority 2009, dated 2018):
Structures can show the parent of a compound that is named as a salt.

Test system: human primary T-cells, IL-2 stimulated proliferation (JAK-1 and JAK-3 dependent; reported as JAK3 activity)
Experiment: Human primary T-cell proliferation stimulated by IL-2 (Example 3)
Assay type: cell-based
Details: Homo sapiens, T-cell, tested under conditions described in Example 3 (IL-2 stimulated human primary T-cell proliferation); read-out: ability to inhibit JAK3 activity, IC50 range (Table V)
Procedure, shortened: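 Peripheral-blood human T-cells pre-activated via TCR/CD28, IL-2-starved overnight, then cultured 72 h at 37 °C with compound in Yssel's medium containing IL-2 (80 U/mL in cell suspension). Proliferation read as viable-cell ATP by CellTiter-Glo luminescence; reduction versus control taken as JAK pathway inhibition.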

**Q.** With Cc1cnc(Nc2ccc3c(c2)CN(C(=O)C(C)(C)C)C3)nc1N(C(=O)C(C)(C)C)c1ccc2oc(=O)n(C(=O)C(C)(C)C)c2c1 [III-13, N-{2-[2-(2,2-Dimethyl-propionyl)-2,3-dihydro-1H-isoindol-5-ylamino]-5-methyl-pyrimidin-4-yl}-N-[3-(2,2-dimethyl-propionyl)-2-oxo-2,3-dihydro-benzooxazol-5-yl]-2,2-dimethyl-propionamide] as the compound, how does the IC50 read?
**A.** The IC50 was less than 500 nM.

**Q.** How did the IC50 turn out when CC(=O)N1Cc2ccc(Nc3ncc(C)c(Nc4ccc5oc(=O)[nH]c5c4)n3)cc2C1 [III-12, 5-[2-(2-Acetyl-2,3-dihydro-1H-isoindol-5-ylamino)-5-methyl-pyrimidin-4-ylamino]-3H-benzooxazol-2-one] was run?
**A.** The IC50 was less than 500 nM.

**Q.** Which IC50 does the source give for COc1cc(Nc2ncc(C)c(Nc3cc(F)c4oc(=O)[nH]c4c3)n2)cc(C(F)(F)F)c1 [Compound I-251, 7-fluoro-5-(2-(3-methoxy-5-(trifluoromethyl)phenylamino)-5-methylpyrimidin-4-ylamino)benzo[d]oxazol-2(3H)-one] here?
**A.** The IC50 was less than 500 nM.

**Q.** COc1c(C)cc(Nc2ncc(C)c(Nc3ccc4oc(=O)[nH]c4c3)n2)cc1Cl [Compound I-265, 5-(2-(3-chloro-4-methoxy-5-methylphenylamino)-5-methylpyrimidin-4-ylamino)benzo[d]oxazol-2(3H)-one] was tested. Which IC50 did it give?
**A.** Its IC50 is less than 500 nM.

**Q.** With Cc1cnc(Nc2cc(Cl)cc(C#N)c2)nc1Nc1ccc2oc(=O)[nH]c2c1 [Compound I-187, 3-Chloro-5-[5-methyl-4-(2-oxo-2,3-dihydro-benzooxazol-5-ylamino)-pyrimidin-2-ylamino]-benzonitrile] as the compound, how does the IC50 read?
**A.** The IC50 was less than 500 nM.

**Q.** Cc1cnc(Nc2cnc(C3CC4CCC(C3)N4CC3CC3)c(C)c2)nc1Nc1ccc2oc(=O)[nH]c2c1 (stereo not shown) [II-67, 5-(2-(6-(8-(cyclopropylmethyl)-8-aza-bicyclo[3.2.1]octan-3-yl)-5-methylpyridin-3-ylamino)-5-methylpyrimidin-4-ylamino)benzo[d]oxazol-2(3H)-one] was tested. Which IC50 did it give?
**A.** Its IC50 is less than 500 nM.

**Q.** For COCCN1C(=O)C(C)(C)Oc2cc(Nc3ncc(C)c(Nc4ccc5oc(=O)[nH]c5c4)n3)cnc21 [IV-45, N2-[2,2-dimethyl-4-(2-methoxyethyl)-2H-pyrido[3,2-b][1,4]oxazin-3(4H)-one-7-yl]-5-methyl-N4-(2-oxo-2,3-dihydro-1,3-benzoxazol-5-yl)-2,4-pyrimidinediamine], which IC50 is on record?
**A.** The IC50 was less than 500 nM.

**Q.** With COc1cc(Nc2ncc(C)c(Nc3ccc4oc(=O)[nH]c4c3)n2)ccc1-c1ccncc1 [Compound I-494, 5-(2-(3-methoxy-4-(pyridin-4-yl)phenylamino)-5-methylpyrimidin-4-ylamino)benzo[d]oxazol-2(3H)-one formate salt] as the compound, how does the IC50 read?
**A.** Its IC50 is 500 to 5000 nM.

**Q.** Cc1cnc(Nc2ccc3c(c2)NC(=O)CCC3)nc1Nc1ccc2oc(=O)[nH]c2c1 [IV-23, 5-(5-methyl-2-(2-oxo-2,3,4,5-tetrahydro-1H-benzo[b]azepin-8-ylamino)pyrimidin-4-ylamino)benzo[d]oxazol-2(3H)-one] was tested. Which IC50 did it give?
**A.** The IC50 was less than 500 nM.

**Q.** CCN(CC)C1CCN(C2CCCCc3ccc(Nc4ncc(C)c(Nc5ccc6oc(=O)[nH]c6c5)n4)cc32)C1 (stereo not shown) [IV-13, 5-{2-[9-(3-Diethylamino-pyrrolidin-1-yl)-6,7,8,9-tetrahydro-5H-benzocyclohepten-2-ylamino]-5-methyl-pyrimidin-4-ylamino}-3H-benzooxazol-2-one] was tested. Which IC50 did it give?
**A.** The IC50 was 500 to 5000 nM.

**Q.** How did the IC50 turn out when COc1ncc(Nc2ncc(C)c(Nc3ccc4oc(=O)[nH]c4c3)n2)cc1C [II-141, N2-(2-methoxy-3-methylpyridin-5-yl)-5-methyl-N4-(2-oxo-2,3-dihydro-1,3-benzoxazol-5-yl)-2,4-pyrimidinediamine] was run?
**A.** The IC50 was less than 500 nM.

**Q.** Which IC50 does the source give for Cc1cc(Nc2ncc(C)c(Nc3ccc4oc(=O)[nH]c4c3)n2)ccc1-c1ccncc1 [Compound I-482, 5-(5-methyl-2-(3-methyl-4-(pyridin-4-yl)phenylamino)pyrimidin-4-ylamino)benzo[d]oxazol-2(3H)-one formate salt] here?
**A.** The IC50 was less than 500 nM.

**Q.** Which IC50 does the source give for COc1cc(Nc2ncc(C)c(Nc3ccc4oc(=O)[nH]c4c3)n2)cc(C(=O)N2CCCC2)c1 [Compound I-253, 5-(2-(3-methoxy-5-(pyrrolidine-1-carbonyl)phenylamino)-5-methylpyrimidin-4-ylamino)benzo[d]oxazol-2(3H)-one] here?
**A.** The IC50 was greater than 10000 nM.

**Q.** Which IC50 does the source give for Cc1cnc(Nc2ccc3c(c2)OC(F)(F)O3)nc1Nc1ccc2oc(=O)[nH]c2c1 [IV-36, N2-(2,2-difluoro-2H-1,3-benzodioxol-5-yl)-5-methyl-N4-(2-oxo-2,3-dihydro-1,3-benzoxazol-5-yl)-2,4-pyrimidinediamine] here?
**A.** The IC50 was less than 500 nM.

**Q.** With Cc1cnc(Nc2cnc(N3CCN(C)CC3)c(Cl)c2)nc1Nc1ccc2oc(=O)[nH]c2c1 [II-116, N2-[3-chloro-2-(4-methylpiperazino)pyridin-5-yl]-5-methyl-N4-(2-oxo-2,3-dihydro-1,3-benzoxazol-5-yl)-2,4-pyrimidinediamine] as the compound, how does the IC50 read?
**A.** The IC50 was less than 500 nM.

**Q.** How did the IC50 turn out when Cc1cnc(Nc2cccc(S(N)(=O)=O)c2)nc1Nc1cc(C)c2oc(=O)[nH]c2c1 [Compound I-243, 3-(5-methyl-4-(7-methyl-2-oxo-2,3-dihydrobenzo[d]oxazol-5-ylamino)pyrimidin-2-ylamino)benzenesulfonamide] was run?
**A.** Its IC50 is less than 500 nM.

**Q.** Which IC50 does the source give for Cc1cnc(Nc2cccnc2)nc1Nc1ccc2oc(=O)[nH]c2c1 [II-42, 5-[5-Methyl-2-(pyridin-3-ylamino)-pyrimidin-4-ylamino]-3H-benzooxazol-2-one] here?
**A.** Its IC50 is 500 to 5000 nM.

**Q.** Which IC50 does the source give for Cc1cnc(Nc2cnc3c(c2)c(C)nn3C)nc1Nc1ccc2oc(=O)[nH]c2c1 [IV-40, N2-(1,3-dimethyl-1H-pyrazolo[3,4-b]pyridin-5-yl)-5-methyl-N4-(2-oxo-2,3-dihydro-1,3-benzoxazol-5-yl)-2,4-pyrimidinediamine] here?
**A.** The IC50 was less than 500 nM.

**Q.** Which IC50 does the source give for COc1cc(Nc2ncc(C)c(Nc3ccc4oc(=O)[nH]c4c3)n2)cc(C)c1C [Compound I-535, 5-(2-(3-methoxy-4,5-dimethylphenylamino)-5-methylpyrimidin-4-ylamino)benzo[d]oxazol-2(3H)-one] here?
**A.** Its IC50 is less than 500 nM.

Same assay, conditions: tested under conditions described in Example 3 (IL-2 stimulated human primary T-cell proliferation); read-out: ability to inhibit JAK3 activity, IC50 range (Table V)

**Q.** Cc1cnc(Nc2ccc(C(=O)NC3CCC3)cc2)nc1Nc1ccc2oc(=O)n(COP(=O)(OC(C)(C)C)OC(C)(C)C)c2c1 [Compound I-152, di-tert-butyl(5-(2-(4-(cyclobutylcarbamoyl)phenylamino)-5-methylpyrimidin-4-ylamino)-2-oxobenzo[d]oxazol-3(2H)-yl)methyl phosphate] was tested. Which IC50 did it give?
**A.** Its IC50 is 500 to 5000 nM.

**Q.** Which IC50 does the source give for Cc1cnc(Nc2ccc(N3CCOCC3)nc2)nc1Nc1ccc2oc(=O)[nH]c2c1 [II-17, N4-(benzo[d]oxazol-2(3H)-on-5-yl)-N2-((2-morpholinyl)pyridin-5-yl)-5-methylpyrimidine-2,4-diamine] here?
**A.** Its IC50 is less than 500 nM.

**Q.** CN1CCN(c2ccc(Nc3ncc(F)c(Nc4ccc5[nH]c(=O)[nH]c5c4)n3)cn2)CC1 [II-16, N4-(benzimidazolin-2-on-5-yl)-N2-[2-(4-methylpiperazin-1-yl)pyridin-5-yl]-5-fluoropyrimidine-2,4-diamine] was tested. Which IC50 did it give?
**A.** The IC50 was less than 500 nM.

**Q.** With Cc1cnc(Nc2cc(C)c(C)c(C)c2)nc1Nc1cc(Cl)c2oc(=O)[nH]c2c1 [Compound I-522, N4-(7-chloro-2-oxo-2,3-dihydro-1,3-benzoxazol-5-yl)-5-methyl-N2-(3,4,5-trimethyl)phenyl-2,4-pyrimidinediamine] as the compound, how does the IC50 read?
**A.** The IC50 was less than 500 nM.

**Q.** With Cn1c(=O)n(C)c2cc(Nc3nc(Nc4cccc(NS(C)(=O)=O)c4)ncc3F)ccc21 [Compound I-42, N4-(1,3-dimethylbenzimidazolin-2-on-5-yl)-N2-((3-methylsulfonylamino)phenyl)-5-fluoropyrimidine-2,4-diamine] as the compound, how does the IC50 read?
**A.** Its IC50 is 500 to 5000 nM.

**Q.** COc1cc(Nc2ncc(C)c(Nc3ccc4oc(=O)n(COP(=O)(OC(C)(C)C)OC(C)(C)C)c4c3)n2)cc(C(F)(F)F)c1 [Compound I-356, N4-{3-[bis(1,1-dimethylethoxy)]phosphinyloxymethyl-2-oxo-2,3-dihydro-1,3-benzoxazol-5-yl}-N2-(3-methoxy-5-trifluoromethyl)phenyl-5-methyl-2,4-pyrimidinediamine] was tested. Which IC50 did it give?
**A.** The IC50 was 5000 to 10000 nM.

**Q.** How did the IC50 turn out when Cc1cnc(Nc2ccc(N3CCN(C)CC3)c(C(N)=O)c2)nc1Nc1ccc2oc(=O)[nH]c2c1 [Compound I-316, N2-[3-aminocarbonyl-4-(4-methylpiperazino)]phenyl-5-methyl-N4-(2-oxo-2,3-dihydro-1,3-benzoxazol-5-yl)-2,4-pyrimidinediamine] was run?
**A.** Its IC50 is less than 500 nM.

**Q.** For COc1cccc(Nc2ncc(C)c(Nc3ccc4oc(=O)[nH]c4c3)n2)c1C [Compound I-328, N2-(3-methoxy-2-methyl)phenyl-5-methyl-N4-(2-oxo-2,3-dihydro-1,3-benzoxazol-5-yl)-2,4-pyrimidinediamine], which IC50 is on record?
**A.** The IC50 was 500 to 5000 nM.

**Q.** Which IC50 does the source give for Cn1c(=O)oc2ccc(Nc3nc(Nc4ccc(NS(C)(=O)=O)cc4)ncc3F)cc21 [Compound I-80, N2-((4-methylsulfonylamino)phenyl)-N4-(3-methyl-2-oxo-2,3-dihydrobenzo[d]oxazol-5-yl)-5-fluoropyrimidine-2,4-diamine] here?
**A.** The IC50 was less than 500 nM.

**Q.** For Cc1cnc(Nc2cccc(S(=O)(=O)NC(C)(C)C)c2)nc1Nc1ccc2oc(=O)[nH]c2c1 [Compound I-25, N4-(benzo[d]oxazol-2(3H)-on-5-yl)-N2-((3-tert-butylaminosulfonyl)phenyl)-5-methylpyrimidine-2,4-diamine], which IC50 is on record?
**A.** The IC50 was less than 500 nM.

**Q.** For Cc1cnc(Nc2ccc(N3CCN(C)CC3)c(C#N)c2)nc1Nc1ccc2oc(=O)[nH]c2c1 [Compound I-341, N2-[3-cyano-4-(4-methylpiperazino)]phenyl-5-methyl-N4-(2-oxo-2,3-dihydro-1,3-benzoxazol-5-yl)-2,4-pyrimidinediamine], which IC50 is on record?
**A.** Its IC50 is less than 500 nM.

**Q.** How did the IC50 turn out when Cc1cnc(Nc2ccc(N3CCCC3)c(C#N)c2)nc1Nc1ccc2oc(=O)[nH]c2c1 [Compound I-310, N2-[3-cyano-4-(pyrrolidin-1-yl)]phenyl-5-methyl-N4-(2-oxo-2,3-dihydro-1,3-benzoxazol-5-yl)-2,4-pyrimidinediamine] was run?
**A.** The IC50 was less than 500 nM.
